Reference: publication doi:10.1101/2025.06.15.659787v1 (biorxiv, 2025)

Molecular target: Mtb-SufS (Mycobacterium tuberculosis, UniProt P9WQ69)
Sequence (P9WQ69 whole entry): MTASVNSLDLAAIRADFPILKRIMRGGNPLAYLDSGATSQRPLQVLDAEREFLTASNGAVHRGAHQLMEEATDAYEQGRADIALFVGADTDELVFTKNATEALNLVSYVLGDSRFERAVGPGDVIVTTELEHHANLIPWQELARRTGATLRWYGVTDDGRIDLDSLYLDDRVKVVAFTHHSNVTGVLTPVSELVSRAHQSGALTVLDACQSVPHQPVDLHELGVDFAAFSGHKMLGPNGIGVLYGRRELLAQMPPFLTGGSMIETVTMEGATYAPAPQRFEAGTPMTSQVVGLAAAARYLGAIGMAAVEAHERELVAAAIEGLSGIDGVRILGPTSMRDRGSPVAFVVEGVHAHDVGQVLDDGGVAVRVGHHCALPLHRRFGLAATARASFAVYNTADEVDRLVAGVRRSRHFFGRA

## N[C@@H](CS)C(=O)O [L-Cys]
  GC-MS assay of L-Ala formation: Mtb-SufS shows low basal activity
